Assay [1] deals with Staphylococcus aureus (ATCC25923). The assay is described as follows: MIC, broth microdilution (CLSI), Staphylococcus aureus ATCC25923. The settings on record: Staphylococcus aureus, ATCC25923, read-out: S. aureus ATCC 25923 MIC.
For assay [2], the system named is Escherichia coli (ATCC25922). The assay is described as follows: MIC, broth microdilution (CLSI), Escherichia coli. The note with it: Escherichia coli, ATCC25922, read-out: E. coli ATCC 25922 MIC, Table XIII. For orientation: Dilution methods test growth across graded concentrations, often in twofold steps.
Protocol: Initial minimal inhibitory concentration (MIC) tests were made on two bacterial strains: • Escherichia coli (ATCC25922) • Staphylococcus aureus (ATCC25923).
MIC values were determined using the standard broth microdilution procedure based on the guidelines by the Clinical and Laboratory Standards Institute (CLSI). Briefly, the compounds were dissolved in DMSO to 10 mM. They were diluted in cation-adjusted Mueller-Hinton broth (CAMHB) to four times the highest concentration tested. A serial two-fold dilution in CAMHB was done in microdilution plates. The inoculum of bacterial strain to be tested was prepared by making a suspension of colonies from an 18 to 24 hours old plate in CAMHB. The inoculum was diluted so that, after inoculation, each well contained approximately 5×10^5 CFU/mL. To a volume of 50 μl compound in CA 3 an equal volume of inoculum was added. The tray was sealed in a plastic bag and incubated at 35° C. for 16 to 20 hours. To aid in the detection of growth the dye resazurin was added to a final concentration 0.001% and incubated at room temperature for 1 h. Reduction of resazurin, and therefore bacterial growth, was seen as a change from blue to pink.
Assay [3] concerns E. coli RNase P RNA, M1 RNA. The assay is described as follows: Inhibition of bacterial RNase P activity, IC50 determination (cleavage of pATSerUG by M1 RNA). In kind it is biochemical. The note with it: NI: No inhibition.

Molecules are shown by their SMILES. Where a name gives a salt, the structure may show the parent alone. Some results are limits rather than exact numbers.

For the compound `Cc1cccc(C(CC(=O)NCCC2CCNCC2)c2cn(Cc3ccccc3)c3ncccc23)c1.Cl` (stereo not drawn) [Compound 39, 3-(1-benzyl-1H-pyrrolo[2,3-b]pyridin-3-yl)-N-(2-(piperidin-4-yl)ethyl)-3-(m-tolyl)propanamide hydrochloride salt], the MIC was 265 µg/mL in assay [1] and greater than 512 µg/mL in assay [2]. In addition, it took 959 µM to reach half-maximal inhibition in assay [3] (IC50).
Taken in the same sequence, the figures for `Cc1cccc(C(CC(=O)NC2CCC(N)CC2)c2cn(CC3CCCCC3)c3ccc(O)cc23)c1.Cl` [Compound 165, N-((1S,4S)-4-aminocyclohexyl)-3-(1-(cyclohexylmethyl)-5-hydroxy-1H-indol-3-yl)-3-(m-tolyl)propanamide hydrochloride salt] were 34 µg/mL, 67 µg/mL and 18 µM.
For the compound `N[C@H]1CC[C@H](NCCCc2cn(CC3CCCCC3)c3ccc(Br)cc23)CC1` [Compound 211, (1R,4R)-N1-(3-(5-bromo-1-(cyclohexylmethyl)-1H-indol-3-yl)propyl)cyclohexane-1,4-diamine hydrochloride salt], the minimum inhibitory concentration (MIC) in assay [1] turned out to be 4 µg/mL; in assay [2] it was 8 µg/mL. In addition, it took 20 µM to reach half-maximal inhibition in assay [3] (IC50).
As for `Cl.N[C@H]1CC[C@H](NC(=O)CC(c2cccc(Cl)c2)c2cn(CC3CCCCC3)c3ccccc23)CC1` (stereo partly drawn) [Compound 135, N-((1r,4r)-4-aminocyclohexyl)-3-(3-chlorophenyl)-3-(1-(cyclohexylmethyl)-1H-indol-3-yl)propanamide hydrochloride salt], the minimal inhibitory concentration (MIC) in assay [1] worked out at 4 µg/mL; in assay [2], 256 µg/mL. In assay [3], this compound gave an IC50 of 8 µM.
Taken in the same sequence, the figures for `Cc1ccccc1-c1ccc2c(c1)c(CC(=O)NC1CCC(N)CC1)cn2CC1CCCCC1.Cl` [Compound 235, N-((1S,4S)-4-aminocyclohexyl)-2-(1-(cyclohexylmethyl)-5-(o-tolyl)-1H-indol-3-yl)acetamide hydrochloride salt] were 8 µg/mL, 126 µg/mL and 12 µM.
In the same order, the values of `Cc1cccc(C(CC(=O)N[C@H]2CC[C@H](N(C)C)CC2)c2cn(CC3CCCCC3)c3ccccc23)c1.Cl` (stereo partly drawn) [Compound 146, 3-(1-(cyclohexylmethyl)-1H-indol-3-yl)-N-((1R,4R)-4-(dimethylamino)cyclohexyl)-3-(m-tolyl)propanamide hydrochloride salt] are 8 µg/mL, 256 µg/mL and 52 µM.
Take `Cl.N[C@H]1CC[C@H](NC(=O)CC(c2cc(Cl)cc(Cl)c2)c2cn(CC3CCCCC3)c3ccccc23)CC1` (stereo partly drawn) [Compound 136, N-((1r,4r)-4-aminocyclohexyl)-3-(1-(cyclohexylmethyl)-1H-indol-3-yl)-3-(3,5-dichlorophenyl) propanamide hydrochloride salt]: the minimal inhibitory concentration (MIC) was 64 µg/mL in assay [1] and greater than 512 µg/mL in assay [2]. This compound also displayed an IC50 in assay [3] of 9 µM.
As for `NC1CCC(NCCCc2cn(CC3CCCCC3)c3ccc(-c4cccc(OC(F)(F)F)c4)cc23)CC1` [Compound 242, (1S,4S)-N1-(3-(1-(cyclohexylmethyl)-5-(3-(trifluoromethoxy)phenyl)-1H-indol-3-yl)propyl)cyclohexane-1,4-diamine hydrochloride salt], the MIC in assay [1] was 2 µg/mL; in assay [2], 5 µg/mL. In assay [3], this compound returned a 50% inhibitory concentration (IC50) of 6.6 µM.
In the same order, the values of `Cc1cccc(C(CCN(C)C2CCNCC2)c2cn(CC3CCCCC3)c3ccc(Br)cc23)c1` (stereo not drawn) [Compound 291, N-(3-(5-bromo-1-(cyclohexylmethyl)-1H-indol-3-yl)-3-(m-tolyl)propyl)-N-methylpiperidin-4-amine hydrochloride salt] are 2 µg/mL, 10 µg/mL and 10 µM.
In the same order, the values of `Cc1cccc(C(CC(=O)NC2CCCC(N)C2)c2cn(CC3CCCCC3)c3ccccc23)c1.Cl` (stereo not drawn) [Compound 178, N-(3-aminocyclohexyl)-3-(1-(cyclohexylmethyl)-1H-indol-3-yl)-3-(m-tolyl)propanamide hydrochloride salt] are 8 µg/mL, 65 µg/mL and 20 µM.
Consider `CN(C)CCNC(=O)CC(c1cn(CC2CCCCC2)c2ccccc12)C1CCNCC1` (stereo not drawn) [Compound 108, 3-(1-(cyclohexylmethyl)-1H-indol-3-yl)-N-(2-(dimethylamino)ethyl)-3-(piperidin-4-yl) propanamide hydrochloride salt], for which the MIC in assay [1] and in assay [2] was greater than 512 µg/mL in each case. This compound had a 50% inhibitory concentration (IC50) in assay [3] of 2080 µM.
On to `Cl.N[C@H]1CC[C@H](NC(=O)CC(c2cn(CC3CCCCC3)c3ccccc23)C2CCOCC2)CC1` (stereo partly drawn) [Compound 132, N-((1R,4R)-4-aminocyclohexyl)-3-(1-(cyclohexylmethyl)-1H-indol-3-yl)-3-(tetrahydro-2H-pyran-4-yl)propanamide hydrochloride salt], for which the MIC in assay [1] was 128 µg/mL; in assay [2], greater than 512 µg/mL. Further, inhibition in assay [3] was half-maximal at 191 µM (IC50).
For the compound `Cc1cccc(C(CC(=O)N[C@H]2CC[C@@H](N)CC2)c2cn(CC3CCCCC3)c3ccccc23)c1.Cl` (stereo partly drawn) [Compound 114, N-((1s,4s)-4-aminocyclohexyl)-3-(1-(cyclohexylmethyl)-1H-indol-3-yl)-3-(m-tolyl)propanamide hydrochloride salt], the MIC in assay [1] was 8 µg/mL; in assay [2], 64 µg/mL. Further, in assay [3], the half-inhibitory concentration (IC50) is 14 µM.
For `Cl.N[C@H]1CC[C@H](NC(=O)CC(c2ccc(F)c(F)c2)c2cn(CC3CCCCC3)c3ccccc23)CC1` (stereo partly drawn) [Compound 134, N-((1R,4R)-4-aminocyclohexyl)-3-(1-(cyclohexylmethyl)-1H-indol-3-yl)-3-(3,4-difluorophenyl)propanamide hydrochloride salt], the results for the MIC in assay [1] and in assay [2] were 4 µg/mL and 256 µg/mL, respectively. Further, in assay [3], the IC50 is 19 µM.
Consider `Cc1cccc(-c2ccc3c(c2)c(CC(=O)N[C@H]2CC[C@H](N)CC2)cn3CC2CCCCC2)c1.Cl` [Compound 209, N-((1R,4R)-4-aminocyclohexyl)-2-(1-(cyclohexylmethyl)-5-(m-tolyl)-1H-indol-3-yl)acetamide hydrochloride salt], for which the minimum inhibitory concentration (MIC) amounted to 4 µg/mL in assay [1] and 63 µg/mL in assay [2]. Moreover, in assay [3], the IC50 is 5.4 µM.
Taken in the same sequence, the figures for `Cc1cccc(C(CC(=O)N[C@H]2CC[C@H](N)CC2)c2cn(CC3CCCCC3)c3ccc(Br)cc23)c1.Cl` (stereo partly drawn) [Compound 126, N-((1R,4R)-4-aminocyclohexyl)-3-(5-bromo-1-(cyclohexylmethyl)-1H-indol-3-yl)-3-(m-tolyl)propanamide hydrochloride salt] were 4 µg/mL, greater than 512 µg/mL and 5.8 µM.
In the case of `Cc1cccc(C(CC(=O)NC2CCNCC2)c2cn(CC3CCCCC3)c3ccccc23)c1.Cl` (stereo not drawn) [Compound 89, 3-(1-(cyclohexylmethyl)-1H-indol-3-yl)-N-(piperidin-4-yl)-3-(m-tolyl)propanamide hydrochloride salt], the MIC is 8 µg/mL in assay [1] and 32 µg/mL in assay [2]. The compound further gave a 50% inhibitory concentration (IC50) in assay [3] of 37 µM.
Take `N[C@H]1CC[C@@H](NC(=O)c2coc(CN(CCc3c[nH]c4ccccc34)Cc3ccc(F)cc3)n2)CC1` [Compound 61, 2-(((2-(1H-indol-3-yl)ethyl)(4-fluorobenzyl)amino)methyl)-N-((1s,4s)-4-aminocyclohexyl) oxazole-4-carboxamide hydrochloride salt]: the results for the MIC in assay [1] and in assay [2] were 63 µg/mL and 251 µg/mL, respectively. Further, 182 µM corresponded to half-maximal inhibition in assay [3] (IC50).
As for `Cc1cccc(C(CC(=O)N[C@H]2CC[C@H](CN)CC2)c2cn(CC3CCCCC3)c3ccc(Br)cc23)c1.Cl` (stereo partly drawn) [Compound 206, N-((1R,4R)-4-(aminomethyl)cyclohexyl)-3-(5-bromo-1-(cyclohexylmethyl)-1H-indol-3-yl)-3-(m-tolyl)propanamide hydrochloride salt], the MIC in assay [1] was 19 µg/mL; in assay [2], greater than 512 µg/mL. Further, in assay [3], the IC50 came out at 23 µM.
In the same order, the values of `Cc1cccc(C(CC(=O)NCC2CNCCO2)c2cn(CC3CCCCC3)c3ccc(Br)cc23)c1.Cl` (stereo not drawn) [Compound 281, 3-(5-bromo-1-(cyclohexylmethyl)-1H-indol-3-yl)-N-(morpholin-2-ylmethyl)-3-(m-tolyl)propanamide hydrochloride salt] are 19 µg/mL, greater than 512 µg/mL and 168 µM.
On to `Cl.N[C@H]1CC[C@H](NC(=O)Cc2cn(CC3CCCCC3)c3ccc(Br)cc23)CC1` [Compound 190, N-((1R,4R)-4-aminocyclohexyl)-2-(5-bromo-1-(cyclohexylmethyl)-1H-indol-3-yl)acetamide hydrochloride salt], for which the MIC was found to be 15 µg/mL in assay [1] and 31 µg/mL in assay [2]. Also, the half-inhibitory concentration (IC50) in assay [3] is 10 µM.
`Cl.NC1CCC(NC(=O)CC(c2ccnc(O)c2)c2cn(CC3CCCCC3)c3ccccc23)CC1` [Compound 157, N-((1S,4S)-4-aminocyclohexyl)-3-(1-(cyclohexylmethyl)-1H-indol-3-yl)-3-(2-hydroxypyridin-4-yl)propanamide hydrochloride salt]: the figures for the MIC in assay [1] and in assay [2] were 131 µg/mL and 262 µg/mL, respectively. This compound had an IC50 in assay [3] of 3.4 µM.
In the same order, the values of `Cc1ccccc1-c1ccc2c(c1)c(CCN[C@H]1CC[C@H](N)CC1)cn2CC1CCCCC1` [Compound 244, (1R,4R)-N1-(2-(1-(cyclohexylmethyl)-5-(o-tolyl)-1H-indol-3-yl)ethyl)cyclohexane-1,4-diamine hydrochloride salt] are 2 µg/mL, 2 µg/mL and 14.7 µM.
In the same order, the values of `Cc1cccc(C(CC(=O)NC2CCC(N)CC2)c2cn(CC3CCCCCC3)c3ccccc23)c1.Cl` [Compound 238, N-((1S,4S)-4-aminocyclohexyl)-3-(1-(cycloheptylmethyl)-1H-indol-3-yl)-3-(m-tolyl)propanamide hydrochloride salt] are 4 µg/mL, greater than 512 µg/mL and 9.2 µM.

A word on the MIC: it is the lowest concentration found to suppress growth. The term IC50 denotes the concentration that gives 50% inhibition. A high value points to weaker potency.

Values taken from patent US20210246115A1 (Bioimics AB, priority 2017, published 2021).
